Assay results as given in PMC3390896, “The Distribution and Physiological Effects of the Myoinhibiting Peptides in the Kissing Bug, Rhodnius Prolixus” (Frontiers in Neuroscience, 2012).
Like-named read-outs stand apart in the source and are kept apart here. Where a SMILES comes first, the peptide text is derived from it. Bridges are numbered along the chain shown (N, C = ends). Where no end group is shown, it is not given here.

Legend:
L. migratoria hindgut = conditions: ref Schoofs et al., [1991]; cited from earlier work
Description: As shown in many insects (and as indicated by their name) MIPs are inhibitory of visceral muscle contraction. Thus, in R. prolixus, MIPs inhibit contractions of the hindgut in a dose-dependent manner. This is true for Rhopr-MIP-4 and for Rhopr-MIP-7. […] The thresholds for these Rhopr-MIPs were approximately the same. These threshold concentrations are lower than the threshold concentrations determined for the suppression of hindgut muscle contractions in L. migrator ...

R. prolixus hindgut = R. prolixus hindgut contraction assay (spontaneous contractions, force transducer); design: species or system Rhodnius prolixus; conditions: mean of five to six preparations
Description: Hindguts from female adult R. prolixus were dissected under R. prolixus saline, leaving a small portion of the ventral cuticle attached to the posterior end. The preparation was placed in a shallow trough molded into a Sylgard-coated petri dish. The preparation was secured to the dish by pinning the cuticle using minuten pins. The anterior end of the hindgut was attached to an AE875 miniature force transducer (Aksjeselskapet Mikro-Elektronikk, Norway) using a strand of silk. Muscle activity was monitored on a linear flat-bed chart recorder connected to a force transducer through an amplifier. Isolated hindguts were maintained in 200 μL of saline at room temperature. Working concentrations of Rhopr-MIP-4 or Rhopr-MIP-7 were applied by removing 100 μL of saline and replacing it with the same volume of peptide that yielded final concentrations of 10^−11 to 10^−6 M. The peptides were washed from the preparation using saline between trials. The effects of the peptides on hindgut contractions were monitored over a 5 min time period.
Responses to Rhopr-MIP-4 and Rhopr-MIP-7 were quantified by dividing the frequency of contractions during the second minute after application, by the frequency of contractions during the 1 min interval prior to peptide application.

[1] = molecular target: T1, Drosophila melanogaster sex peptide receptor (Drome-SPR) (Drosophila melanogaster, UniProt Q8SWR3); assay: Functional aequorin-based Drome-SPR assay in CHO-WTA11 cells; type: cell-based; conditions: CHO cells coexpressing aequorin, Gα16 and Drosophila SPR; aequorin luminescence; three independent measurements done in triplicate
T1 construct: expressed in transfected cells; host or cells: CHO-WTA11 cells (expressing apoaequorin and Gα16)
T1 sequence (Q8SWR3 1-435): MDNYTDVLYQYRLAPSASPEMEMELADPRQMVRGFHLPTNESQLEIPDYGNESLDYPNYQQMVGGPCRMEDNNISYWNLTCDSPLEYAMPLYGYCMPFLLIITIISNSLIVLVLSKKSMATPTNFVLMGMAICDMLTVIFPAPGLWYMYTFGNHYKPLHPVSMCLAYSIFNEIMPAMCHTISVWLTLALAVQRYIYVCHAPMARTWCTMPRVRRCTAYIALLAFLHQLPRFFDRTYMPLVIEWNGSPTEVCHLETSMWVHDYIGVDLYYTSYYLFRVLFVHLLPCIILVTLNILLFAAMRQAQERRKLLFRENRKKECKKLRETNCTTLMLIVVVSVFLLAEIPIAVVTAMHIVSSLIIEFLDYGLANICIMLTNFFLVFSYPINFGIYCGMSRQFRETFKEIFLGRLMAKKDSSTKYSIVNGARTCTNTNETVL
Protocol: Drome-SPR expression vector (described by Poels et al., [2010]) transfected and mock transfected (negative control) CHO-WTA11 cells (expressing apoaequorin and Gα16) were grown until 90% confluency, detached using PBS with 100 μM EDTA, spun (6 min, 150 g) and resuspended at 5 × 10^6 cells/mL in D-MEM/F-12 without phenol red supplemented with 0.1% BSA. “Coelenterazine h” (Invitrogen) was added to a concentration of 5 μM and the cells were incubated in the dark at room temperature for 3–4 h. After coelenterazine loading, cells were diluted 10-fold and incubated for 30 min. Test compounds were dissolved in 50 μL D-MEM/F-12 supplemented with 0.1% BSA and dispensed in triplicate into the wells of a white 96-well plate. Light emission was recorded (Mithras LB940, Berthold) for 30 s immediately after injection of 50 μL cell suspension into each well. Cells were then lysed by a second injection of 50 μL 0.3% Triton X-100 and monitored during 8 s. Data were collected using MikroWin2000 (Mikrotek Laborsysteme Gmbh).

[2] = molecular target: T1, Drosophila melanogaster sex peptide receptor (Drome-SPR); design: method as in Poels et al., [2010]; conditions: same aequorin assay; ref Poels et al., [2010]; cited from earlier work
Protocol: The activity profiles of Rhopr-MIP-4 and -7 were tested in the functional aequorin-based Drome-SPR assays (Figure 5).

[3] = frequency in second minute after application divided by frequency in 1 min before, read-out: IC50 for frequency of spontaneous hindgut contractions
[4] = isolated hindgut of female adult R. prolixus, saline, room temperature, read-out: IC50 for amplitude of spontaneous hindgut contractions

Molecule: AWQDLNAGW-NH2 [Lom-MIP]
- threshold concentration for suppression of hindgut muscle contractions (L. migratoria hindgut): 1.8 nM

Molecule: CC(C)C[C@H](NC(=O)[C@H](CC(=O)O)NC(=O)[C@H](CO)NC(=O)[C@H](Cc1c[nH]c2ccccc12)NC(=O)[C@H](C)N)C(=O)N[C@@H](CCC(N)=O)C(=O)N[C@@H](CO)C(=O)N[C@@H](CO)C(=O)NCC(=O)N[C@@H](Cc1c[nH]c2ccccc12)C(N)=O [Rhopr-MIP-4] (H-AWSDLQSSGW-NH2)
- IC50 (R. prolixus hindgut; [3]): ~20 nM
- IC50 (R. prolixus hindgut; [4]): ~10 nM
- EC50 [1]: 53 nM

Molecule: Drome-SP: Drosophila sex peptide, 36 amino acids with a core W(X8)W and a C-terminal disulfide bridge (WEWPWNRKPTKFPIPSPNPRDKWCRLNLGPAWGGRC; disulfide 24-36 (inferred); UniProt P05623 20-55, looked up)
- EC50 [2]: ~15 nM

Molecule: CC(C)C[C@H](NC(=O)[C@H](CO)NC(=O)[C@H](CC(N)=O)NC(=O)[C@H](Cc1c[nH]c2ccccc12)NC(=O)[C@H](C)N)C(=O)N[C@@H](Cc1c[nH]cn1)C(=O)NCC(=O)NCC(=O)N[C@@H](Cc1c[nH]c2ccccc12)C(N)=O [Rhopr-MIP-7] (H-AWNSLHGGW-NH2)
- IC50 (R. prolixus hindgut; [3]): ~20 nM
- IC50 (R. prolixus hindgut; [4]): ~100 nM
- EC50 [1]: 0.59 nM
